We go through eight compounds from article PMC6259569, “Pancreatic Lipase Inhibition by C-Glycosidic Flavones Isolated from Eremochloa ophiuroides” (Molecules, 2010).

This assay addresses T1, porcine pancreatic lipase (Sus scrofa, UniProt P00591).
T1 construct: purchased Sigma, St. Louis, MO
T1 sequence (P00591 1-450): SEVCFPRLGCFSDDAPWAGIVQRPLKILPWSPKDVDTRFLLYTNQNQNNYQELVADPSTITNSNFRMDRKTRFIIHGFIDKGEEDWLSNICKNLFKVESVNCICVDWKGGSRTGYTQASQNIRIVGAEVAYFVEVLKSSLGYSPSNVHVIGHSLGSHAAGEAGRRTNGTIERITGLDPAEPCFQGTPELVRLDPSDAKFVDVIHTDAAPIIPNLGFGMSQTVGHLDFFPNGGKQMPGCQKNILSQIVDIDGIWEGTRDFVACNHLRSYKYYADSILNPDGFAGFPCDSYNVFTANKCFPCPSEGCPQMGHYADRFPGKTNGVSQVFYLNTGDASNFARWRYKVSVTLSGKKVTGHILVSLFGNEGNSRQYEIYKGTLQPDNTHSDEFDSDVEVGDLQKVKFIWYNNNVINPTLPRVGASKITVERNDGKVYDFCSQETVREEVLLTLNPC
The experiment in a line: Pancreatic lipase inhibition assay (p-NPB hydrolysis, OD 405 nm). The assay is classed as biochemical. Conditions: substrate p-NPB, 37 °C, mean ± S.D. of quadruplicate experiments, read-out: IC50, pancreatic lipase inhibitory activity (concentration that caused a 50% reduction in enzyme activity). The procedure:
The ability of the compounds to inhibit porcine pancreatic lipase was evaluated using previously reported methods with a minor modification. Briefly, an enzyme buffer was prepared by the addition of 30 μL (10 units) of a solution of porcine pancreatic lipase (Sigma, St. Louis, MO) in10 mM MOPS (morpholinepropanesulphonic acid), and 1 mM EDTA, pH 6.8 to 850 μL of Tris buffer (100 mM Tris-HC1 and 5 mM CaCl2, pH 7.0). […] Pancreatic lipase activity was determined by measuring the hydrolysis of p-NPB to p-nitrophenol at 405 nm using an ELISA reader (Tecan, Infinite F200, Austria). Inhibition of lipase activity was expressed as the percentage decrease in the OD when porcine pancreatic lipase was incubated with the test compounds.

Molecules are shown by their SMILES.

For `C[C@H]1O[C@@H](c2c(O)cc3oc(-c4ccc(O)c(O)c4)cc(=O)c3c2O)C[C@H](O)[C@H]1O` [Compound 1, luteolin 6-C-β-D-boivinopyranoside], the IC50 was found to be 50.5 ± 3.9 µM.

Turning to `O=c1cc(-c2ccc(O)c(O)c2)oc2c([C@@H]3O[C@H](CO)[C@@H](O)[C@H](O)[C@H]3O)c(O)cc(O)c12` [Compound 2, orientin], the IC50 came out at 31.6 ± 2.7 µM.

With `O=c1cc(-c2ccc(O)c(O)c2)oc2cc(O)c([C@@H]3O[C@H](CO)[C@@H](O)[C@H](O)[C@H]3O)c(O)c12` [Compound 3, isoorientin], the IC50 was 44.6 ± 1.3 µM.

Regarding `CC1OC(OC2C(c3c(O)cc4oc(-c5ccc(O)c(O)c5)cc(=O)c4c3O)OC(CO)C(O)C2O)C(O)C(O)C1O` [Compound 5, isoorientin 2-O-α-L-rhamnoside], the IC50 was 18.5 ± 2.6 µM.

Consider `O=c1cc(-c2ccc(O)c(O)c2)oc2cc(O)cc(O)c12` [Compound 6, luteolin], for which the IC50 was more than 200 µM.

Turning to `O=C(/C=C/c1ccc(O)c(O)c1)O[C@@H]1C[C@](O)(C(=O)O)C[C@@H](O)[C@H]1O` [Compound 7, chlorogenic acid], the IC50 was more than 200 µM.

As for `COC(=O)[C@]1(O)C[C@@H](O)[C@@H](O)[C@H](OC(=O)/C=C/c2ccc(O)c(O)c2)C1` [Compound 8, methyl chlorogenate], the IC50 was found to be 33.6 ± 2 µM.

In the case of `O=C(O)/C=C/c1ccc(O)c(O)c1` [Compound 9, caffeic acid], the IC50 is more than 200 µM.
